Measurements taken from patent US20030109537A1, “Methods and materials for treating bone conditions” (priority 2001, published 2003).

Columns and labels:
[1] = test system: PTH-induced marrow fibrosis and osteoclast resorption; assay: Bone histomorphometry in rats given trapidil, continuous PTH or both; assay type: in vivo, rat; settings: continuous PTH, significant upon two-way ANOVA
PDGF-A mRNA = assay: RNase protection assay of steady state mRNA levels; assay type: in vivo, rat
Protocol: (§1) Induction of parathyroid bone disease. Three month-old female Sprague-Dawley rats (Harlan Sprague-Dawley, Inc., Indianapolis, Ind.) were randomly divided into 3 groups, with 5 rats per group. In group 1 (pulsatile or intermittent PTH), each rat received 80 μg/kg/day human PTH (1-34) (hPTH) in vehicle (150 mM NaCl, 1 mM HCl and 2% heat-inactivated rat serum) by subcutaneous (s.c.) injection once daily for 7 days. In group 2 (vehicle), an osmotic pump (Alza Corp., Mountainview, Calif.) that delivered vehicle alone at a rate of 1 μl/hr for 7 days was implanted in each rat. In group 3 (continuous PTH), an osmotic pump that delivered 40 μg/kg/day hPTH at a rate of 1 μl/hr for 7 days was implanted in each rat. On day 8, all rats were anesthetized with ketamine (50 mg/kg): xylazine HCl (5 mg/kg) and sacrificed by decapitation. Both tibiae were removed from each rat. Right tibiae were fixed by immersion in 70% ethanol then processed for bone histology to verify the appearance of peritrabecular fibrosis. Left tibiae were frozen in liquid N2 and stored at −80° C. until processed for RNA isolation.
Isolation of RNA. Frozen proximal tibial metaphyses were individually homogenized in guanidine isothiocyanate using a Spex freezer mill (Industries, Inc., Edison, N.J.). Total RNA was extracted from the homogenate using a modified organic solvent method. See Chomczynski et al., Anal. Biochem., 162:156-159 (1987). Isolated RNA yields were determined spectrophotometrically at 260 nm using standard methods.
RNase protection assay. Steady state mRNA levels for PDGF-A and other growth factors were determined using an RNase protection assay kit according to the manufacturer's protocol (Pharmingen, San Diego, Calif.). Quantitation of protected RNA fragments was performed by PhosphoImager analyses and normalized to glyceraldehyde-3-phosphate dehydrogenase (GAPDH) and the ribosomal structural protein L32.
RNase protection assays were performed as described in Example 1, for PDGF-A, BMP-1, BMP-6, BMP-3, and TGF-β1 to verify the microarray data. […]

[2] = test system: rat model for parathyroid bone disease; assay: Rat model for parathyroid bone disease: pulsatile vs continuous PTH, bone histomorphometry; assay type: in vivo
Protocol: as §1
Bone histomorphometry. Proximal metaphyses were dehydrated in a graded series of ethanol, then infiltrated and embedded in methymethacrylate (Fisher Scientific, Fair Lawn, N.J.). After embedding, 5 μm sections were cut using a microtome (Reichert-Jung Model 2065, Heidelberg, Germany), and the sections were mounted unstained. Dynamic histomorphometric cancellous bone measurements were made in the unstained sections using fluorescent microscopy to detect the injected tetracycline and calcein markers. After obtaining the cancellous bone measurements, consecutive sections were stained with toluidine blue for bone cell and peritrabecular fibrosis measurements using light microscopy. A standard sampling site of 2.8 mm was located in the secondary spongiosa of the metaphysis at 1.5 mm distal to the growth plate.
All histomorphometric measurements were made with an Osteomeasure image analysis system (OsteoMetrics, Atlanta, Ga.) coupled to a photomicroscope and personal computer. All parameters were calculated according to standardized nomenclature. See, for example, Parfitt et al., J. Bone Miner. Res., 2:595-610 (1987). Bone volume was defined as the percentage of tissue volume consisting of cancellous bone. Tetracycline and calcein labels were determined as the percentage of bone perimeter labeled with fluorochrome. Mineral apposition rate (MAR) was defined as the average width between tetracycline and calcein label divided by interlabel time of 6 days. Bone formation rate (BFR) was defined as the product of MAR and the calcein label perimeter, and was expressed per bone surface (BFR/BS), bone volume (BFR/BV), or tissue volume (BFR/TV). Osteoblast surface was defined as a palisade of large basophilic cuboidal cells directly lying on top of the osteoid, and was expressed as a percent of bone perimeter. Osteoclast surface was defined as the bone perimeter lined by multinucleated cells regardless of the presence of erosion. Fibrotic perimeter was defined as the bone perimeter lined by multilayers of fibroblasts.
A rat model of hyperparathyroidism (HPT) was developed as described in Example 1, and compared to intermittent PTH treatment. PTH results in major changes in bone metabolism in less than 1 week and these short-term changes accurately predict the long-terms effects of the hormone. To induce an anabolic course of PTH action, human recombinant PTH was administered s.c. (80 μg/kg/d). […] In contrast, no increase in osteoclast number was noted.
To mimic HPT, hPTH was infused continuously at the same dose rate (80 μg/kg/d) using a s.c. implanted osmotic pump. […] In addition, bone formation in rats treated continuously or intermittently with PTH had similar increases in bone formation after 1 week. Cancellous osteopenia was not observed. […]

[3] = pulsatile PTH 80 μg/kg/day s.c. once daily 7 days, rats
[4] = pulsatile PTH 80 μg/kg/day s.c. once daily 7 days, rats, vs untreated control

- PTH-induced regulation of mRNA levels for BMP-1, -3, and -6, as well as TGF-β (PDGF-A mRNA; RNase protection assay verifying microarray data): confirmed
- increase in the mRNA levels for PDGF-A (PDGF-A mRNA; continuous PTH, rat tibial metaphysis, RNase protection assay, normalized to L32): 3.3 fold
- effect on steady state mRNA levels for PDGF-A (PDGF-A mRNA; pulsatile PTH, rat tibial metaphysis, RNase protection assay): no effect
Substance: human PTH (1-34)
- rate of mineral apposition [1]: slightly increased
- osteoclast number ([2]; PTH s.c. 80 μg/kg/d, rats): no increase
- Cancellous osteopenia ([2]; PTH-treated rats, 1 week): not observed
- PTH pulse duration having the same effect as continuous PTH ([2]; programmed implantable osmotic pump, same quantity of PTH, rats): 6 h
- Marrow fibrosis [2, 3]: Not observed^a
- Osteoid surface [2, 3]: Minimal^a
- Osteoblast perimeter [2, 4]: ↑^a
- mRNA levels for one matrix proteins [2, 4]: ↑^a
